Measurements from US20230340011A1 (Asteroid Therapeutics, priority 2022, published 2023).

How the values were obtained:
[1] = biological target: LXRβ (Homo sapiens (Human), UniProt P55055); assay: In vitro assay LXRβ: PathHunter NHR CHO cells, LXRβ / Steroid Receptor Co-activator Peptide enzyme fragment complementation; type: cell-based; conditions: PathHunter NHR CHO cells, full-length human LXRβ and SRCP, chemiluminescent signal; read-out: LXRβ PPI
Method in brief: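 Enzyme fragment complementation read-out: CHO cells stably expressing ProLink-tagged full-length human LXRβ plus nuclear enzyme acceptor–SRCP fusion, seeded and held overnight at 37° C. Medium with charcoal-dextran filtered serum; final vehicle 1%. Chemiluminescence measured after signal generation.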

[2] = biological target: SREBP-2 (Homo sapiens (Human), UniProt Q12772); assay: In vitro assay SREBP-2: PathHunter U2OS SREBP-2 Nuclear Translocation Cell Line, U18666A-stimulated; type: cell-based; conditions: PathHunter U2OS SREBP-2 nuclear translocation cells, U18666A 10 μM, overnight (16 hours)

Chain of LXRβ (P55055 whole entry, the tested form may be a part): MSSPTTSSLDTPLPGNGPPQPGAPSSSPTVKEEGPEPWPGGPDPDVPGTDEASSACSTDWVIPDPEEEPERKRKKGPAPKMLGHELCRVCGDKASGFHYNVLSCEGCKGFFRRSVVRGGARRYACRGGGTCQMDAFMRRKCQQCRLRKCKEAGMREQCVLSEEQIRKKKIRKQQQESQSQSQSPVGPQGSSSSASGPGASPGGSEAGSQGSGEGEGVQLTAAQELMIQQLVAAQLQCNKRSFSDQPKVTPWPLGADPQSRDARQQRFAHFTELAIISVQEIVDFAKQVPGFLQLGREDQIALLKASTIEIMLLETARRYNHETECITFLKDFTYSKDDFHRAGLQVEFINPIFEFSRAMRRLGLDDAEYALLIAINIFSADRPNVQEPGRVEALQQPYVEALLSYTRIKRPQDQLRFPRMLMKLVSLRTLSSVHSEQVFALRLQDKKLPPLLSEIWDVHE

Structure (SMILES) | EC50 [1] [µM] | IC50 [2] [µM]
C[C@H](CCC(=O)N1CCC(CNC(=O)C(C)(C)O)CC1)[C@H]1CC[C@H]2[C@@H]3CC=C4C[C@@H](O)CC[C@]4(C)[C@H]3CC[C@]12C [Example 228, 2-hydroxy-N-((1-((R)-4-((3S,8S,9S,10R,13R,14S,17R)-3-hydroxy-10,13-dimethyl-2,3,4,7,8,9,10,11,12,13,14,15,16,17-tetradecahydro-1H-cyclopenta[a]phenanthren-17-yl)pentanoyl)piperidin-4-yl)methyl)-2-methylpropanamide] | > 10 | < 0.25
C[C@H](COc1ncccc1CO)[C@H]1CC[C@H]2[C@@H]3CC=C4C[C@@H](O)CC[C@]4(C)[C@H]3CC[C@]12C [Example 257, (3S,8S,9S,10R,13S,14S,17R)-17-((S)-1-((3-(hydroxymethyl)pyridin-2-yl)oxy)propan-2-yl)-10,13-dimethyl-2,3,4,7,8,9,10,11,12,13,14,15,16,17-tetradecahydro-1H-cyclopenta[a]phenanthren-3-ol] | > 10 | < 0.25
C[C@H](CCc1ccccn1)[C@H]1CC[C@H]2[C@@H]3CC=C4C[C@@](C)(O)CC[C@]4(C)[C@H]3CC[C@]12C [Example 369, (3S,8S,9S,10R,13R,14S,17R)-3,10,13-trimethyl-17-((R)-4-(pyridin-2-yl)butan-2-yl)-2,3,4,7,8,9,10,11,12,13,14,15,16,17-tetradecahydro-1H-cyclopenta[a]phenanthren-3-ol] | 1 to 10 | 0.25 to 1
COC(=O)N1CCN(C(=S)CC[C@@H](C)[C@H]2CC[C@H]3[C@@H]4CC=C5C[C@@H](O)CC[C@]5(C)[C@H]4CC[C@]23C)CC1 [Example 550, methyl4-[(4R)-4-[(1R,3aS,3bS,7S,9aR,9bS,11aR)-7-hydroxy-9a,11a-dimethyl-1H,2H,3H,3aH,3bH,4H,6H,7H,8H,9H,9aH,9bH,10H,11H,11aH-cyclopenta[a]phenanthren-1-yl]pentanethioyl]piperazine-1-carboxylate] | > 10 | < 0.25
CC[C@]1(O)CC[C@@]2(C)C(=CC[C@H]3[C@@H]4CC[C@H]([C@H](C)CCC(=O)N5CCN(C(=O)OC)CC5)[C@@]4(C)CC[C@@H]32)C1 [Example 420, Methyl 4-[(4R)-4-[(1R,3aS,3bS,7S,9aR,9bS,11aR)-7-ethyl-7-hydroxy-9a,11a-dimethyl-1H,2H,3H,3aH,3bH,4H,6H,7H,8H,9H,9aH,9bH,10H,11H,11aH-cyclopenta[a]phenanthren-1-yl]pentanoyl]piperazine-1-carboxylate] | > 10 | < 0.25
C[C@H](CCC(=O)N1CCN(C(=O)c2cn(C)nn2)CC1)[C@H]1CC[C@H]2[C@@H]3CC=C4C[C@@H](O)CC[C@]4(C)[C@H]3CC[C@]12C [Example 308, (R)-4-((3S,8S,9S,10R,13R,14S,17R)-3-hydroxy-10,13-dimethyl-2,3,4,7,8,9,10,11,12,13,14,15,16,17-tetradecahydro-1H-cyclopenta[a]phenanthren-17-yl)-1-(4-(1-methyl-1H-1,2,3-triazole-4-carbonyl)piperazin-1-yl)pentan-1-one] | > 10 | < 0.25
C[C@H](CCC(=O)N1CCN(c2cncn2C)CC1)[C@H]1CC[C@H]2[C@@H]3CC=C4C[C@@H](O)CC[C@]4(C)[C@H]3CC[C@]12C [Example 481, (4R)-4-[(1R,3aS,3bS,7S,9aR,9bS,11aR)-7-hydroxy-9a,11a-dimethyl-1H,2H,3H,3aH,3bH,4H,6H,7H,8H,9H,9aH,9bH,10H,11H,11aH-cyclopenta[a]phenanthren-1-yl]-1-[4-(1-methyl-1H-imidazol-5-yl)piperazin-1-yl]pentan-1-one] | > 10 | < 0.25
CCC(=O)N1CCN(C(=O)CC[C@@H](C)[C@H]2CC[C@H]3[C@@H]4CC=C5C[C@@H](O)CC[C@]5(C)[C@H]4CC[C@]23C)[C@@H](C)C1 [Example 583, (4R)-4-[(1R,3aS,3bS,7S,9aR,9bS,11aR)-7-hydroxy-9a,11a-dimethyl-1H,2H,3H,3aH,3bH,4H,6H,7H,8H,9H,9aH,9bH,10H,11H,11aH-cyclopenta[a]phenanthren-1-yl]-1-[(2S)-2-methyl-4-propanoylpiperazin-1-yl]pentan-1-one] | > 10 | < 0.25
C[C@@H]1CCN(C(=O)N2CCN(C(=O)CC[C@@H](C)[C@H]3CC[C@H]4[C@@H]5CC=C6C[C@@H](O)CC[C@]6(C)[C@H]5CC[C@]34C)CC2)C1 [Example 667, (R)-4-((3S,8S,9S,10R,13R,14S,17R)-3-hydroxy-10,13-dimethyl-2,3,4,7,8,9,10,11,12,13,14,15,16,17-tetradecahydro-1H-cyclopenta[a]phenanthren-17-yl)-1-(4-((R)-3-methylpyrrolidine-1-carbonyl)piperazin-1-yl)pentan-1-one] | > 10 | < 0.25
C[C@H](CCC(=O)N1CCN(C(=O)NC2CC2)CC1)[C@H]1CC[C@H]2[C@@H]3CC=C4C[C@@H](O)CC[C@]4(C)[C@H]3CC[C@]12C [Example 338, 4-[(4R)-4-[(1R,3aS,3bS,7S,9aR,9bS,11aR)-7-hydroxy-9a,11a-dimethyl-1H,2H,3H,3aH,3bH,4H,6H,7H,8H,9H,9aH,9bH,10H,11H,11aH-cyclopenta[a]phenanthren-1-yl]pentanoyl]-N-cyclopropylpiperazine-1-carboxamide] | > 10 | < 0.25
Cc1nnc(C(=O)N2CCN(C(=O)CC[C@@H](C)[C@H]3CC[C@H]4[C@@H]5CC=C6C[C@@H](O)CC[C@]6(C)[C@H]5CC[C@]34C)CC2)o1 [Example 540, (R)-4-((3S,8S,9S,10R,13R,14S,17R)-3-hydroxy-10,13-dimethyl-2,3,4,7,8,9,10,11,12,13,14,15,16,17-tetradecahydro-1H-cyclopenta[a]phenanthren-17-yl)-1-(4-(5-methyl-1,3,4-oxadiazole-2-carbonyl)piperazin-1-yl)pentan-1-one] | > 10 | < 0.25
C[C@H](CCC(=O)N1CCC(OCc2ccncc2)CC1)[C@H]1CC[C@H]2[C@@H]3CC=C4C[C@@H](O)CC[C@]4(C)[C@H]3CC[C@]12C [Example 546, (R)-4-((3S,8S,9S,10R,13R,14S,17R)-3-hydroxy-10,13-dimethyl-2,3,4,7,8,9,10,11,12,13,14,15,16,17-tetradecahydro-1H-cyclopenta[a]phenanthren-17-yl)-1-(4-(pyridin-4-ylmethoxy)piperidin-1-yl)pentan-1-one] | > 10 | < 0.25
CCc1cccnc1CC[C@@H](C)[C@H]1CC[C@H]2[C@@H]3CC=C4C[C@@H](O)CC[C@]4(C)[C@H]3CC[C@]12C [Example 187, (3S,8S,9S,10R,13R,14S,17R)-17-((R)-4-(3-ethylpyridin-2-yl)butan-2-yl)-10,13-dimethyl-2,3,4,7,8,9,10,11,12,13,14,15,16,17-tetradecahydro-1H-cyclopenta[a]phenanthren-3-ol] | 0.25 to 1 | < 0.25
CCC1(OC)CCCN(C(=O)CC[C@@H](C)[C@H]2CC[C@H]3[C@@H]4CC=C5C[C@@H](O)CC[C@]5(C)[C@H]4CC[C@]23C)C1 (stereo partly drawn) [Example 519, (R)-1-((R)-3-ethyl-3-methoxypiperidin-1-yl)-4-((3S,8S,9S,10R,13R,14S,17R)-3-hydroxy-10,13-dimethyl-2,3,4,7,8,9,10,11,12,13,14,15,16,17-tetradecahydro-1H-cyclopenta[a]phenanthren-17-yl)pentan-1-one] | 1 to 10 | < 0.25
C[C@H](CCc1cccc(F)n1)[C@H]1CC[C@H]2[C@@H]3CC=C4C[C@@H](O)CC[C@]4(C)[C@H]3CC[C@]12C [Example 161, (3S,8S,9S,10R,13R,14S,17R)-17-((R)-4-(6-fluoropyridin-2-yl)butan-2-yl)-10,13-dimethyl-2,3,4,7,8,9,10,11,12,13,14,15,16,17-tetradecahydro-1H-cyclopenta[a]phenanthren-3-ol] | 1 to 10 | < 0.25
C[C@H](CCC(=O)N(C)C)[C@H]1CC[C@H]2[C@@H]3CC=C4CC(F)(F)CC[C@]4(C)[C@H]3CC[C@]12C [Example 127, (R)-4-((8S,9S,10R,13R,14S,17R)-3,3-difluoro-10,13-dimethyl-2,3,4,7,8,9,10,11,12,13,14,15,16,17-tetradecahydro-1H-cyclopenta[a]phenanthren-17-yl) -N,N-dimethylpentanamide] | > 10 | > 10
C[C@H](COc1cc(CO)ccn1)[C@H]1CC[C@H]2[C@@H]3CC=C4C[C@@H](O)CC[C@]4(C)[C@H]3CC[C@]12C [Example 258, (3S,8S,9S,10R,13S,14S,17R)-17-((S)-1-((4-(hydroxymethyl)pyridin-2-yl)oxy)propan-2-yl)-10,13-dimethyl-2,3,4,7,8,9,10,11,12,13,14,15,16,17-tetradecahydro-1H-cyclopenta[a]phenanthren-3-ol] | > 10 | < 0.25
C[C@H](CCC(=O)N1CCC(C(O)(C(F)(F)F)C(F)(F)F)CC1)[C@H]1CC[C@H]2[C@@H]3CC=C4C[C@@H](O)CC[C@]4(C)[C@H]3CC[C@]12C [Example 99, (R)-1-(4-(1,1,1,3,3,3-hexafluoro-2-hydroxypropan-2-yl)piperidin-1-yl)-4-((3S,8S,9S,10R,13R,14S,17R)-3-hydroxy-10,13-dimethyl-2,3,4,7,8,9,10,11,12,13,14,15,16,17-tetradecahydro-1H-cyclopenta[a]phenanthren-17-yl)pentan-1-one] | > 10 | < 0.25
